# Key:
# [1] = tested on: Staphylococcus aureus; test: Antibacterial activity against Staphylococcus aureus ATCC 29213 by microbroth dilution assay; type: functional
# [2] = tested on: Staphylococcus aureus; test: Antibacterial activity against methicillin resistant Staphylococcus aureus N315 by microbroth dilution assay; type: functional
# [3] = tested on: Staphylococcus aureus; test: Antibacterial activity against methicillin resistant Staphylococcus aureus NCTC 10442 by microbroth dilution assay; type: functional
# [4] = tested on: Escherichia coli; test: Antibacterial activity against Escherichia coli ATCC 25922 by microbroth dilution assay; type: functional
# [5] = tested on: Klebsiella pneumoniae; test: Antibacterial activity against Klebsiella pneumoniae ATCC 10031 by microbroth dilution assay; type: functional
# [6] = tested on: Klebsiella pneumoniae; test: Antibacterial activity against Klebsiella pneumoniae ATCC 14581 by microbroth dilution assay; type: functional
# [7] = tested on: Pseudomonas aeruginosa; test: Antibacterial activity against Pseudomonas aeruginosa ATCC 9027 by microbroth dilution assay; type: functional
# [8] = Hemolytic activity in rabbit erythrocytes; type: toxicity, cell-based, Oryctolagus cuniculus, Erythrocyte
# [9] = tested on: Staphylococcus aureus; test: Induction of resistance development in Staphylococcus aureus ATCC 29213 assessed as fold increase in MIC treated over 20 serial passages by microdilution assay; type: functional
SMILES,MIC [1] [µg/mL],MIC [2] [µg/mL],MIC [3] [µg/mL],MIC [4] [µg/mL],MIC [5] [µg/mL],MIC [6] [µg/mL],MIC [7] [µg/mL],HC50 [8] [µg/mL],fold change (FC) [9]
CCCCCCCCCN1c2ccccc2Sc2ccc(OCC(=O)N[C@@H](CCCNC(=N)N)C(=O)N[C@@H](CCCNC(=N)N)C(=O)OC)cc21,1.56,1.56,1.56,1.56,3.12,6.25,50,> 200,
CCCCCCCOc1ccc2c(c1)N(CCCCNC(=N)N)c1ccccc1S2,3.12,0.78,0.78,> 50,,,,> 200,
CC(C)=CCOc1ccc2c(c1)N(CCCCNC(=N)N)c1ccccc1S2,1.56,0.78,0.78,> 50,,,,> 200,
CCCCCCCCCN1c2ccccc2Sc2ccc(OCC(=O)N[C@@H](CCCNC(=N)N)C(=O)N[C@@H](CCCNC(=N)N)C(=O)N[C@@H](CCCNC(=N)N)C(=O)OC)cc21,1.56,0.78,1.56,3.12,12.5,12.5,12.5,> 200,
CCCCCCCN1c2ccccc2Sc2ccc(OCC(=O)N[C@@H](CCCNC(=N)N)C(=O)N[C@@H](CCCNC(=N)N)C(=O)OC)cc21,1.56,1.56,1.56,6.25,25,25,> 50,> 200,
COc1ccc2c(c1)Nc1ccccc1S2,> 50,> 50,> 50,> 50,,,,> 200,
Oc1ccc2c(c1)Nc1ccccc1S2,> 50,> 50,> 50,> 50,,,,> 200,
CCCCCOc1ccc2c(c1)N(CCCNC(=N)N)c1ccccc1S2,1.56,1.56,0.78,> 50,,,,> 200,
CCCCCOc1ccc2c(c1)N(CCCCCCCCNC(=N)N)c1ccccc1S2,1.56,1.56,1.56,> 50,,,,> 200,
CC1(C)S[C@@H]2[C@H](NC(=O)[C@H](N)c3ccc(O)cc3)C(=O)N2[C@H]1C(=O)O [AMOXICILLIN],,,,6.25,,,,,
CCCCCCCCCN1c2ccccc2Sc2ccc(OCC(=O)N[C@@H](CCCNC(=N)N)C(=O)N[C@@H](CCCNC(=N)N)C(N)=O)cc21,1.56,1.56,0.78,1.56,3.12,3.12,> 50,> 200,
CC(C)=CCOc1ccc2c(c1)Nc1ccccc1S2,> 50,> 50,> 50,> 50,,,,> 200,
CCCCCCCCCOc1ccc2c(c1)N(CCCCN)c1ccccc1S2,3.12,3.12,3.12,> 50,,,,> 200,
CCCCCOc1ccc2c(c1)N(CCCCNC(=N)N)c1ccccc1S2,1.56,1.56,1.56,6.25,6.25,25,> 50,> 200,
CCCCCN1c2ccccc2Sc2ccc(OCC(=O)OCC)cc21,> 50,> 50,> 50,> 50,,,,> 200,
CCCCCOc1ccc2c(c1)N(CCCCCCN)c1ccccc1S2,3.12,1.56,1.56,> 50,,,,> 200,
CCCCCOc1ccc2c(c1)Nc1ccccc1S2,> 50,> 50,> 50,> 50,,,,> 200,
CCCCCCCN1c2ccccc2Sc2ccc(OCC(=O)OCC)cc21,> 50,> 50,> 50,> 50,,,,> 200,

SMILES,MIC [1] [µg/mL],MIC [2] [µg/mL],MIC [3] [µg/mL],MIC [4] [µg/mL],MIC [5] [µg/mL],MIC [6] [µg/mL],MIC [7] [µg/mL],HC50 [8] [µg/mL],fold change (FC) [9]
CCCCCOc1ccc2c(c1)N(CCCCCCCCN(CC)CC)c1ccccc1S2,3.12,3.12,3.12,> 50,,,,> 200,
CCCCCOc1ccc2c(c1)N(CCCCN)c1ccccc1S2,3.12,3.12,3.12,25,,,,> 200,
CCCCCCCOc1ccc2c(c1)Nc1ccccc1S2,> 50,> 50,> 50,> 50,,,,> 200,
CCCCCOc1ccc2c(c1)N(CCCN)c1ccccc1S2,3.12,3.12,3.12,25,,,,> 200,
CCOC(=O)COc1ccc2c(c1)Nc1ccccc1S2,> 50,> 50,> 50,> 50,,,,> 200,
CCCCCOc1ccc2c(c1)N(CCCCCCN(CC)CC)c1ccccc1S2,3.12,1.56,3.12,> 50,,,,> 200,
CCCCCOc1ccc2c(c1)N(CCCCN(CC)CC)c1ccccc1S2,6.25,3.12,3.12,> 50,,,,> 200,
CCCCCN1c2ccccc2Sc2ccc(OCC(=O)N[C@@H](CCCNC(=N)N)C(=O)N[C@@H](CCCNC(=N)N)C(=O)OC)cc21,6.25,3.12,6.25,> 50,,,,> 200,
CCCCCCCCCN1c2ccccc2Sc2ccc(OCC(=O)OCC)cc21,> 50,> 50,> 50,> 50,,,,> 200,
CCCCCCCCCOc1ccc2c(c1)N(CCCCNC(=N)N)c1ccccc1S2,3.12,1.56,1.56,> 50,,,,> 200,
CCCCCOc1ccc2c(c1)N(CCCCCCNC(=N)N)c1ccccc1S2,1.56,1.56,1.56,> 50,,,,> 200,
CCCCCCCCCOc1ccc2c(c1)Nc1ccccc1S2,> 50,> 50,> 50,> 50,,,,> 200,
CCCCCCCN1c2ccccc2Sc2ccc(OCC(=O)N[C@@H](CCCNC(=N)N)C(=O)N[C@@H](CCCNC(=N)N)C(=O)N[C@@H](CCCNC(=N)N)C(=O)OC)cc21,0.78,0.78,0.78,12.5,,,,> 200,
CCn1cc(C(=O)O)c(=O)c2cc(F)c(N3CCNCC3)cc21 [NORFLOXACIN],1.56,,,,,,,,1024
CCCCCCCOc1ccc2c(c1)N(CCCCN)c1ccccc1S2,3.12,1.56,3.12,> 50,,,,> 200,
CCCCCN1c2ccccc2Sc2ccc(OCC(=O)N[C@@H](CCCNC(=N)N)C(=O)OC)cc21,12.5,3.12,6.25,> 50,,,,> 200,
CC(C)=CCOc1ccc2c(c1)N(CCCCN)c1ccccc1S2,6.25,6.25,6.25,> 50,,,,> 200,
CCCCCOc1ccc2c(c1)N(CCCCCCCCN)c1ccccc1S2,3.12,3.12,3.12,> 50,,,,> 200,

# Reference: ChEMBL document CHEMBL5634090, “Design of phenothiazine-based cationic amphiphilic derivatives incorporating arginine residues: Potential membrane-active broad-spectrum antimicrobials combating pathogenic bacteria in vitro and in vivo” (Eur J Med Chem, 2023)
